Experimental findings from patent US12371454B2, “Cyclic peptide compound having Kras inhibitory action” (priority 2019, dated 2025) are described below.

As a reminder, the IC50 is the midpoint of a concentration-inhibition curve.

The structures appear in SMILES notation. Starred links: 1 amine or outer side, 2 acyl side, 3 side chain; linkers in the order of their positions; H or OH if unused. Positions of bridges follow the written chain, without caps; N, C: chain ends. Non-standard residues stand in square brackets, D forms with d. Residues, ends and D or L forms follow the SMILES beside them. *: point of attachment. hPhe(3-Cl-4-CF3) = N[C@@H](CCc1ccc(C(F)(F)F)c(Cl)c1)C(=O)O; hPhe(3-F,4-CF3) = N[C@@H](CCc1ccc(C(F)(F)F)c(F)c1)C(=O)O; hPhe(4-CF3) = N[C@@H](CCc1ccc(C(F)(F)F)cc1)C(=O)O; NMePhe(4-Cl) = CN[C@@H](Cc1ccc(Cl)cc1)C(=O)O; X8 = O=C([C@H](Cc1cc(I)ccc1F)N[*:1])[*:2]; NMeGly(cPent) = CN[C@H](C(=O)O)C1CCCC1; NMeCha = CN[C@@H](CC1CCCCC1)C(=O)O; NMeChg = CN[C@H](C(=O)O)C1CCCCC1; NMeD = CN[C@@H](CC(=O)O)C(=O)O; NMeL = CN[C@@H](CC(C)C)C(=O)O; NMePra = C#CC[C@H](NC)C(=O)O; NMeV = CN[C@H](C(=O)O)C(C)C; d(β3hA) = C[C@@H](N)CC(=O)O; NMeA = CN[C@@H](C)C(=O)O; NMeAib = CNC(C)(C)C(=O)O; Nle = CCCC[C@H](N)C(=O)O; Piperidide = C1CCN(*)CC1; Pra = C#CC[C@H](N)C(=O)O; dNMeA = CN[C@H](C)C(=O)O; Ac5c = NC1(C(=O)O)CCCC1; Aze = O=C(O)[C@@H]1CCN1; NEtG = CCNCC(=O)O; Sar = CNCC(=O)O

For the test, the target named is T1, Kras and SOS1 (biotin-tagged human Kras loaded with GDP, His-tagged human SOS1) (Homo sapiens, UniProt P01116, G12D).
T1 construct: made in house; host or cells: E. coli (stated for Kras only)
T1 sequence (P01116 1-188 isoform P01116-2 G12D): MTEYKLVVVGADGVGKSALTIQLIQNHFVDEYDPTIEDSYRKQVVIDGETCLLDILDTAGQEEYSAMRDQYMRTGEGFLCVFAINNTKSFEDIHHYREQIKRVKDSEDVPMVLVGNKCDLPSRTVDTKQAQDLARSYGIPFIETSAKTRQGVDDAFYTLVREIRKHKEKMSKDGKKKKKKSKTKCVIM
Description: Protein-protein interaction inhibition between Kras and SOS1 (KrasGl2D-SOS PPI) using AlphaScreen. The conditions noted are these: AlphaScreen; biotin-tagged human Kras loaded with GDP, His-tagged human SOS1; read-out: KRAS G12D-SOS PPI IC50. The format is binding. The procedure, abridged:
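Kras was produced in E. coli, purified, then loaded with GDP. It was paired via streptavidin acceptor beads with His-SOS1 held on nickel donor beads, and proximity signal at 520-620 nm was read after 680 nm illumination.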
Background: In Alpha technology, singlet oxygen from a donor bead excites a nearby acceptor bead.
With `C#CC[C@@H]1NC(=O)[C@H](CC(C)C)N(C)C(=O)C[C@@H](C(=O)N2CCCCC2)N(C)C(=O)[C@H](C2CCCCC2)N(C)C(=O)C2(CCCC2)NC(=O)[C@@H]2CCCN2C(=O)[C@H](CCc2ccc(C(F)(F)F)c(Cl)c2)NC(=O)CN(C)C(=O)[C@H](CC2CCCCC2)N(C)C(=O)CN(C)C(=O)CN(C)C1=O` [Compound 716] ([NMeL][Pra][Sar][Sar][NMeCha][Sar][hPhe(3-Cl-4-CF3)]P[Ac5c][NMeChg][NMeD]-Piperidide; lactam N-11), the IC50 is 1.1 nM.

Take `CCCC[C@@H]1NC(=O)[C@H](Cc2cc(I)ccc2F)NC(=O)CN(C)C(=O)[C@H](Cc2ccc(Cl)cc2)N(C)C(=O)CN(C)C(=O)CN(C)C(=O)[C@H]([C@@H](C)CC)NC(=O)[C@H](CC(C)C)N(C)C(=O)C[C@@H](C(=O)N2CCCCC2)N(C)C(=O)[C@H](CC(C)C)NC(=O)C(C)(C)N(C)C1=O` [Compound 1286] ([NMeL]I[Sar][Sar][NMePhe(4-Cl)][Sar][X8][Nle][NMeAib]L[NMeD]-Piperidide; lactam N-11): the concentration for half-maximal inhibition (IC50) was 24 nM. The figure for `CC[C@H](C)[C@@H]1NC(=O)[C@H](CC(C)C)N(C)C(=O)C[C@@H](C)NC(=O)[C@H](C(C)C)N(C)C(=O)C2(CCCC2)NC(=O)[C@@H]2CCCN2C(=O)[C@H](CCc2ccc(C(F)(F)F)c(Cl)c2)NC(=O)CN(C)C(=O)[C@H](COc2ccccc2Cl)N(C)C(=O)CN(C)C(=O)CN(C)C1=O` [Compound 1582] is 35 nM. Next, `CC[C@H](C)[C@@H]1NC(=O)[C@H](CC(C)C)N(C)C(=O)C[C@@H](C(=O)N2CCCCC2)NC(=O)[C@H](CC(C)C)N(C)C(=O)C2(CCCC2)NC(=O)[C@@H]2CCCN2C(=O)[C@H](CCc2ccc(C(F)(F)F)c(F)c2)NC(=O)CN(C)C(=O)[C@H](CC2CCCCC2)N(C)C(=O)CN(C)C(=O)CN(C)C1=O` [Compound 298] ([NMeL]I[Sar][Sar][NMeCha][Sar][hPhe(3-F,4-CF3)]P[Ac5c][NMeL]D-Piperidide; lactam N-11): 21 nM. Next, `CC[C@H](C)[C@@H]1NC(=O)[C@H](C)N(C)C(=O)C[C@@H](C)NC(=O)[C@H](C2CCCC2)N(C)C(=O)C2(CCCC2)NC(=O)[C@@H]2CCCN2C(=O)[C@H](CCc2ccc(C(F)(F)F)c(Cl)c2)NC(=O)[C@@H](C)N(C)C(=O)[C@H](CC(C)C)N(C)C(=O)[C@@H]2CCN2C(=O)[C@H](C)N(C)C1=O` [Compound 98] (cyclo([Ac5c][NMeGly(cPent)][d(β3hA)][NMeA]I[NMeA][Aze][NMeL][dNMeA][hPhe(3-Cl-4-CF3)]P)): 68 nM; `CC[C@H](C)[C@@H]1NC(=O)[C@H](CC(C)C)N(C)C(=O)C[C@@H](C)NC(=O)[C@H](C(C)C)N(C)C(=O)C2(CCCC2)NC(=O)[C@@H]2CCCN2C(=O)[C@H](CCc2ccc(C(F)(F)F)c(Cl)c2)NC(=O)CN(C)C(=O)[C@H](CC2CCCCC2)N(C)C(=O)CN(CC)C(=O)CN(C)C1=O` [Compound 504] (cyclo([Ac5c][NMeV][d(β3hA)][NMeL]I[Sar][NEtG][NMeCha][Sar][hPhe(3-Cl-4-CF3)]P)): 53 nM. Regarding `C#CC[C@H]1C(=O)N(C)[C@H](C(=O)N2CCCCC2)CC(=O)N(C)[C@@H](CC(C)C)C(=O)N[C@@H]([C@@H](C)CC)C(=O)N(C)CC(=O)N(C)CC(=O)N(C)[C@@H](CC2CCCCC2)C(=O)N(C)CC(=O)N[C@@H](CCc2ccc(C(F)(F)F)c(Cl)c2)C(=O)N2CCC[C@H]2C(=O)NC2(CCCC2)C(=O)N1C` [Compound 284] ([NMeL]I[Sar][Sar][NMeCha][Sar][hPhe(3-Cl-4-CF3)]P[Ac5c][NMePra][NMeD]-Piperidide; lactam N-11), the IC50 was found to be 71 nM. Next, `CC[C@H](C)[C@@H]1NC(=O)[C@H](CC(C)C)N(C)C(=O)C[C@@H](C(=O)N(C)C)N(C)C(=O)[C@H](C2CCCC2)N(C)C(=O)C2(CCCC2)NC(=O)[C@H](Cc2ccc(Cl)cc2)N(C)C(=O)[C@H](CCc2ccc(C(F)(F)F)c(Cl)c2)NC(=O)CN(C)C(=O)[C@H](CC2CCCCC2)N(C)C(=O)[C@@H]2CCN2C(=O)[C@H](C)N(C)C1=O` [Compound 1063] ([NMeL]I[NMeA][Aze][NMeCha][Sar][hPhe(3-Cl-4-CF3)][NMePhe(4-Cl)][Ac5c][NMeGly(cPent)][NMeD]-NMe2; lactam N-11): 43 nM.

In the case of `CC[C@H](C)[C@@H]1NC(=O)[C@H](C(C)C)N(C)C(=O)C[C@@H](C)NC(=O)[C@H](CC(C)C)N(C)C(=O)C2(CCCC2)NC(=O)[C@H](CC(C)C)N(C)C(=O)[C@H](CCc2ccc(C(F)(F)F)cc2)NC(=O)CN(C)C(=O)[C@H](Cc2ccc(Cl)cc2)N(C)C(=O)[C@@H]2CCN2C(=O)CN(C)C1=O` [Compound 645] (cyclo([Ac5c][NMeL][d(β3hA)][NMeV]I[Sar][Aze][NMePhe(4-Cl)][Sar][hPhe(4-CF3)][NMeL])), the IC50 was 58 nM.
